From patent EP2815749A1, “Solid form of 4-amino-2-(2,6-dioxopiperidine-3-yl)isoindoline-1,3-dione having specified X-ray diffraction pattern” (IP Gesellschaft für Management mbH, priority 2013, dated 2014)
Structures can show the parent of a compound that is named as a salt. Where two headings read alike, the source gives them in different places.

What was measured:
[1] = Solid state stability study of Example 1 (hemisulfate salt, Form HI.5-1); format: physicochemical
Protocol: Stability Study: The solid state stability of Example lwas tested by exposing samples to various temperature and relative humidity conditions for periods of 1, 2, and 4 weeks. […] Table 4: Solid State Stability of Hemisulfate Salt, Form HI.5-1 ({drug6b}): […]

[2] = Stability in water slurry; format: physicochemical; conditions: room temperature, after two days
Protocol: (§1) Other Crystalline Forms of Example 1: Form P22C: prepared by heating Form HI.5-1 ({drug6b}) at 60°C for 2 hours or at 75°C for 5 minutes. […] Form P33 ({drug6c}): Form HI.5-1 ({drug6b}) converted to Form P33 ({drug6c}) between 50°C and 75°C in variable temperature PXRD experiment. […] Form P35: Prepared from slurry of Form HI.5-1 ({drug6b}) in dry MeOH under molecular sieves (7% RH). Converted to Form P33 ({drug6c}) when dried at 60°C. Stability in Water Slurry: An aqueous slurry of Example 1 was prepared and stored at room temperature. […] The hemisulfate salt of Compound (VI) has the surprising advantage of providing a salt that is physically stable and chemically stable compared to other salts of Compound (VI). Further, the hemisulfate salt had the surprising advantage of being provided in a stable crystalline form, Form HI.5-1 ({drug6b}).

[3] = Moisture sorption isotherm of Example 1; format: physicochemical; conditions: 25°C
Description: Example 1 has moisture sorption weight gains of 0.8 weight % and 2.8 weight % between 25% and 75% relative humidity and 5% and 95% relative humidity, respectively. […] PXRD Peak Positions (degrees 2Θ±0.1):
The hemisulfate salt of Compound (VI) has the surprising advantage of reducing the variability in the bioavailability of Compound (VI) and/or increasing the bioavailability of Compound (VI) to the patient. Based on these in vitro and in vivo data, it is expected that the hemisulfate will provide a significant advantage of consistency in bioavailability among patients over the free form. […] Single Crystal Data (LVL): Data were collected on a Bruker-Nonius CAD4 serial diffractometer. […] Intensities were measured using Cu Ka radiation (λ = 1.5418 A) at a constant temperature with the Θ-2Θ variable scan technique and were corrected only for Lorentz-polarization factors. […] Indexing and processing of the measured intensity data were carried out with the HKL2000 software package (Otwinowski, Z & Minor, W. (1997) in Macromolecular Crystallography, eds. Carter, W.C. Jr. & Sweet, R.M. (Academic, NY), Vol. 276, pp307-326) in the Collect program suite. […] Indexing and processing of the measured intensity data were carried out with the APEX2 software package/program suite (APEX2 Data collection and processing user interface: APEX2 User Manual, v1.27; BRUKER AXS, inc., Madison, WI). […]

[4] = In vivo pharmacokinetics of Compound (VI) free base and hemisulfate salt capsules; conditions: dogs; 150 mg capsule oral; famotidine pretreatment
Protocol: An aliquot of 0.050 mL of dog EDTA plasma was used for the assay. […] A 450 µï^ portion of the organic layer was removed and evaporated to dryness. The residue was reconstituted in 300 µl, of the reconstitution solution (30% acetonitrile in 10 mM NH40Ac with 0.01% acetic acid). All liquid transfer steps were performed using a Perkin Elmer JANUS Mini® liquid handler except for the addition of the internal standard solution. A 5 µï^ aliquot of the extracted sample was injected to uHPLC-MS/MS system. The uHPLC was performed on a LEAP 4X Ultra uHPLC system with LEAP HTC PAL autosampler. Mobile phase A contained 10 mM NH4OAc and 0.01% acetic acid in ACN/water (10:90), and mobile phase B contained 10 mM NH4OAc and 0.01% acetic acid in ACN/water (90: 10). […] The flow rate was 0.6 mL/min and column temperature was maintained at 60°C condition. Detection was accomplished using an AB Sciex Triple Quad 5500 mass spectrometer in positive ESI with turbo ion spray ionization and using multiple reaction monitoring (MRM) mode. […] Data acquisition and quantification were performed using AB Sciex Analyst® 1.5.1 software.

[5] = Water activity studies between crystalline forms; format: physicochemical
Protocol: as §1

[6] = for water uptake at 5 % RH: 25°C
Protocol: (§2) Hygroscopicity: Sorption/desorption isotherms were measured using the VT1100 humidity microbalance (VTI Corporation, Hialeah, FL, USA). Measurements were carried out at 25°C. Samples were dried under N2 flow at 25°C. […] Concentration in supernatant was measured by gravimetry for organic solvents and by HPLC from aqueous solvents and propylene glycol.

[7] = 1440 min
[8] = for Stability in water: 2 days at 50°C
Protocol: as §2

[9] = 25 RH/ 60 °C (first such line, r3), 1 week
[10] = 25 RH/ 60 °C (first such line, r3), 2 weeks
[11] = 25 RH/ 60 °C (first such line, r3), 4 weeks
[12] = 25 RH/ 60 °C (first such line, r3), Initial
[13] = 25 RH/ 60 °C (second such line, r5), 1 week
[14] = 25 RH/ 60 °C (second such line, r5), 2 weeks
[15] = 25 RH/ 60 °C (second such line, r5), 4 weeks
[16] = 25 RH/ 60 °C (third such line, r6), 1 week
[17] = 25 RH/ 60 °C (third such line, r6), 2 weeks
[18] = 25 RH/ 60 °C (third such line, r6), 4 weeks

N[C@@H]1c2cccnc2[C@H](OC(=O)N2CCC(n3c(=O)[nH]c4ncccc43)CC2)CC[C@H]1c1cccc(F)c1F [Example 1, (5S,6S,9R)-5-Amino-6-(2,3-difluorophenyl)-6,7,8,9-tetrahydro-5H-cyclohepta[b]pyridin-9-yl 4-(2-oxo-2,3-dihydro-1H-imidazo[4,5-b]pyridin-1-yl) piperidine-1-carboxylate, Hemisulfate Salt]
% pot. [1, 9]: 94.4%
% total imp. [1, 9]: 0.27%
% pot. [1, 10]: 96.8%
% total imp. [1, 10]: 0.27%
% pot. [1, 11]: 96.9%
% total imp. [1, 11]: 0.27%
% pot. [1, 12]: 98.5%
% total imp. [1, 12]: 0.27%
% pot. [1, 13]: 95.1%
% total imp. [1, 13]: 0.27%
% pot. [1, 14]: 98.5%
% total imp. [1, 14]: 0.27%
% pot. [1, 15]: 97.0%
% total imp. [1, 15]: 0.27%
% pot. [1, 16]: 101.6%
% total imp. [1, 16]: 0.28%
% pot. [1, 17]: 102.6%
% total imp. [1, 17]: 0.27%
% pot. [1, 18]: 110.0%
% total imp. [1, 18]: 0.27%
% pot. ([1]; HIL/UV, 1 week): 100.7%
% total imp. ([1]; HIL/UV, 1 week): 0.27%
% pot. ([1]; HIL/UV, 2 weeks): 96.9%
% total imp. ([1]; HIL/UV, 2 weeks): 0.27%
% pot. ([1]; Refrigerated, 1 week): 98.0%
% total imp. ([1]; Refrigerated, 1 week): 0.29%
% pot. ([1]; Refrigerated, 2 weeks): 96.5%
% total imp. ([1]; Refrigerated, 2 weeks): 0.27%
% pot. ([1]; Refrigerated, 4 weeks): 105.7%
% total imp. ([1]; Refrigerated, 4 weeks): 0.27%
% pot. ([1]; Refrigerated, Initial): 98.5%
% total imp. ([1]; Refrigerated, Initial): 0.27%
Solid state stability ([1]; various temperature and relative humidity conditions, up to four weeks of storage): stable
Chemical degradation in aqueous slurry [2]: no significant chemical degradation
PXRD pattern after aqueous slurry [2]: no change in the PXRD pattern
moisture sorption weight gain ([3]; between 5% and 95% relative humidity): 2.8 weight %
moisture sorption weight gain ([3]; between 25% and 75% relative humidity): 0.8 weight %
BA Mean [4]: 34.73%
Relative stability (water activity) ([5]; versus Form P22C): more stable at > 23% relative humidity
Relative stability (water activity) ([5]; versus Form P33): more stable at > 23% relative humidity

N#Cc1ccc([C@H]2CCc3cncn32)c(F)c1 [nitrate salt, 4-(R)-(6,7-dihydro-5H-pyrrolo[1,2-c]imidazol-5-yl)-3-fluoro-benzonitrile]
water uptake at 5 % RH [6]: 0%
Moisture gain ([6]; r.h. 0%): 0.0%
Moisture gain ([6]; r.h. 5%): 0.0%
Moisture gain ([6]; r.h. 25%): 0.1%
Moisture gain ([6]; r.h. 50%): 0.2%
Moisture gain ([6]; r.h. 75%): 0.2%
Moisture gain ([6]; r.h. 85%): 0.2%
Moisture gain ([6]; r.h. 95%): 0.2%
solubility ([7]; pH 1, 25°C): > 50 mg/mL
Stability in water [8]: stable
Solubility in water at the 0.1% target concentration ([8]; water): soluble

N#Cc1ccc([C@H]2CCc3cncn32)c(F)c1 [phosphate salt, 4-(R)-(6,7-dihydro-5H-pyrrolo[1,2-c]imidazol-5-yl)-3-fluoro-benzonitrile]
water uptake at 5 % RH [6]: 0%
Moisture gain ([6]; r.h. 0%): 0.0%
Moisture gain ([6]; r.h. 5%): 0.0%
Moisture gain ([6]; r.h. 25%): 0.1%
Moisture gain ([6]; r.h. 50%): 0.1%
Moisture gain ([6]; r.h. 75%): 0.2%
Moisture gain ([6]; r.h. 85%): 0.3%
Moisture gain ([6]; r.h. 95%): 0.8%
solubility ([7]; pH 6.8, 25°C): > 50 mg/mL
Stability in water [8]: stable
